Data: the NIST ThermoML archive (doi:10.1021/je700321s)

Test: xn = mol fraction of the nth substance listed
Details: Liquid, Vibrating tube method

CC(C)O [propan-2-ol] + O=C=O
Details | mass density [kg/m3]
308.11 K, 1814 kPa, x2 = 0.139 | 786.2
308.11 K, 2252 kPa, x2 = 0.139 | 786.8
308.11 K, 3003 kPa, x2 = 0.139 | 787.7
308.11 K, 3206 kPa, x2 = 0.139 | 787.9
308.11 K, 3427 kPa, x2 = 0.139 | 788.2
308.11 K, 3514 kPa, x2 = 0.2003 | 792.7
308.11 K, 3607 kPa, x2 = 0.139 | 788.4
308.11 K, 4006 kPa, x2 = 0.2003 | 793.4
308.11 K, 4089 kPa, x2 = 0.139 | 788.9
308.11 K, 4510 kPa, x2 = 0.2003 | 794
308.11 K, 5013 kPa, x2 = 0.139 | 789.9
308.11 K, 5028 kPa, x2 = 0.2003 | 794.7
308.11 K, 5503 kPa, x2 = 0.139 | 790.5
308.11 K, 5504 kPa, x2 = 0.2003 | 795.3
308.11 K, 6002 kPa, x2 = 0.6086 | 812.2
308.11 K, 6006 kPa, x2 = 0.2003 | 795.9
308.11 K, 6019 kPa, x2 = 0.139 | 791
308.11 K, 6221 kPa, x2 = 0.6086 | 813
308.11 K, 6400 kPa, x2 = 0.6086 | 813.7
308.11 K, 6517 kPa, x2 = 0.2003 | 796.5
308.11 K, 6518 kPa, x2 = 0.139 | 791.7
308.11 K, 6606 kPa, x2 = 0.6086 | 814.5
308.11 K, 6807 kPa, x2 = 0.6086 | 815.2
308.11 K, 6824 kPa, x2 = 0.7943 | 793.7
308.11 K, 7001 kPa, x2 = 0.7943 | 795.6
308.11 K, 7009 kPa, x2 = 0.139 | 792.2
308.11 K, 7019 kPa, x2 = 0.6086 | 815.9
308.11 K, 7029 kPa, x2 = 0.2003 | 797.2
308.11 K, 7203 kPa, x2 = 0.6086 | 816.7
308.11 K, 7206 kPa, x2 = 0.7943 | 797.4
308.11 K, 7400 kPa, x2 = 0.7943 | 799.2
308.11 K, 7401 kPa, x2 = 0.6086 | 817.4
308.11 K, 7512 kPa, x2 = 0.139 | 792.7
308.11 K, 7516 kPa, x2 = 0.2003 | 797.7
308.11 K, 7607 kPa, x2 = 0.6086 | 818.3
308.11 K, 7607 kPa, x2 = 0.7943 | 801.1
308.11 K, 7804 kPa, x2 = 0.6086 | 818.9
308.11 K, 7810 kPa, x2 = 0.7943 | 803
308.11 K, 8001 kPa, x2 = 0.2003 | 798.3
308.11 K, 8005 kPa, x2 = 0.6086 | 819.7
308.11 K, 8007 kPa, x2 = 0.7943 | 804.6
308.11 K, 8016 kPa, x2 = 0.139 | 793.3
308.11 K, 8197 kPa, x2 = 0.7943 | 806.2
308.11 K, 8209 kPa, x2 = 0.6086 | 820.4
308.11 K, 8414 kPa, x2 = 0.7943 | 807.8
308.11 K, 8511 kPa, x2 = 0.2003 | 798.9
308.11 K, 8530 kPa, x2 = 0.139 | 793.9
308.11 K, 8600 kPa, x2 = 0.6086 | 821.7
308.11 K, 8618 kPa, x2 = 0.7943 | 809.6
308.11 K, 8796 kPa, x2 = 0.7943 | 810.8
308.11 K, 8810 kPa, x2 = 0.6086 | 822.4
308.11 K, 8990 kPa, x2 = 0.139 | 794.3
308.11 K, 9000 kPa, x2 = 0.6086 | 823.1
308.11 K, 9017 kPa, x2 = 0.7943 | 812.5
308.11 K, 9019 kPa, x2 = 0.2003 | 799.5
308.11 K, 9101 kPa, x2 = 0.6086 | 823.3
308.11 K, 9200 kPa, x2 = 0.6086 | 823.8
308.11 K, 9203 kPa, x2 = 0.7943 | 813.9
308.11 K, 9400 kPa, x2 = 0.7943 | 815.3
308.11 K, 9498 kPa, x2 = 0.139 | 794.8
308.11 K, 9607 kPa, x2 = 0.7943 | 816.6
308.11 K, 9807 kPa, x2 = 0.7943 | 818
308.11 K, 9902 kPa, x2 = 0.7943 | 818.6
308.11 K, 10003 kPa, x2 = 0.2003 | 800.7
308.11 K, 10047 kPa, x2 = 0.2003 | 800.8
308.12 K, 4780 kPa, x2 = 0.4248 | 807.5
308.12 K, 5038 kPa, x2 = 0.4248 | 808.2
308.12 K, 5326 kPa, x2 = 0.4248 | 808.8
308.12 K, 5517 kPa, x2 = 0.4248 | 809.2
308.12 K, 6029 kPa, x2 = 0.4248 | 810.3
308.12 K, 6505 kPa, x2 = 0.4248 | 811.3
308.12 K, 6515 kPa, x2 = 0.4248 | 811.4
308.12 K, 6714 kPa, x2 = 0.4248 | 811.8
308.12 K, 7035 kPa, x2 = 0.4248 | 812.4
308.12 K, 7207 kPa, x2 = 0.4248 | 812.8
308.12 K, 7302 kPa, x2 = 0.9492 | 699.6
308.12 K, 7402 kPa, x2 = 0.9492 | 704.9
308.12 K, 7501 kPa, x2 = 0.4248 | 813.4
308.12 K, 7605 kPa, x2 = 0.9492 | 713.8
308.12 K, 7700 kPa, x2 = 0.4248 | 813.8
308.12 K, 7802 kPa, x2 = 0.9492 | 720.9
308.12 K, 8002 kPa, x2 = 0.9492 | 728
308.12 K, 8024 kPa, x2 = 0.4248 | 814.4
308.12 K, 8204 kPa, x2 = 0.9492 | 734.5
308.12 K, 8404 kPa, x2 = 0.9492 | 740.3
308.12 K, 8605 kPa, x2 = 0.9492 | 745.7
308.12 K, 8606 kPa, x2 = 0.4248 | 815.6
308.12 K, 8802 kPa, x2 = 0.4248 | 816
308.12 K, 8802 kPa, x2 = 0.9492 | 750.6
308.12 K, 9002 kPa, x2 = 0.4248 | 816.4
308.12 K, 9004 kPa, x2 = 0.9492 | 755.4
308.12 K, 9201 kPa, x2 = 0.9492 | 759.7
308.12 K, 9408 kPa, x2 = 0.9492 | 764
308.12 K, 9529 kPa, x2 = 0.4248 | 817.3
308.12 K, 9610 kPa, x2 = 0.9492 | 768
308.12 K, 9805 kPa, x2 = 0.9492 | 771.5
308.12 K, 9898 kPa, x2 = 0.4248 | 818
308.12 K, 10003 kPa, x2 = 0.9492 | 774.9
308.12 K, 10202 kPa, x2 = 0.9492 | 778
308.12 K, 10405 kPa, x2 = 0.9492 | 780.9
308.12 K, 10617 kPa, x2 = 0.9492 | 783.7
308.12 K, 10807 kPa, x2 = 0.9492 | 785.9
308.13 K, 7456 kPa, x2 = 0.9715 | 611.7
308.13 K, 7502 kPa, x2 = 0.9715 | 636.2
308.13 K, 7992 kPa, x2 = 0.9715 | 680.6
308.13 K, 8522 kPa, x2 = 0.9715 | 706.8
308.13 K, 8997 kPa, x2 = 0.9715 | 724.3
308.13 K, 9508 kPa, x2 = 0.9715 | 739.8
308.13 K, 10027 kPa, x2 = 0.9715 | 752.9
308.13 K, 10521 kPa, x2 = 0.9715 | 763.7
308.13 K, 11017 kPa, x2 = 0.9715 | 773.2
308.13 K, 11500 kPa, x2 = 0.9715 | 781.6
308.13 K, 12008 kPa, x2 = 0.9715 | 789.6
308.13 K, 12520 kPa, x2 = 0.9715 | 797.2
308.13 K, 13012 kPa, x2 = 0.9715 | 803.8
308.13 K, 13520 kPa, x2 = 0.9715 | 810.4
308.13 K, 14014 kPa, x2 = 0.9715 | 816.4
308.13 K, 14520 kPa, x2 = 0.9715 | 822.1
308.13 K, 15000 kPa, x2 = 0.9715 | 827.3
313.08 K, 7544 kPa, x2 = 0.7943 | 777.4
313.08 K, 7601 kPa, x2 = 0.7943 | 778.5
313.08 K, 7810 kPa, x2 = 0.7943 | 780.8
313.08 K, 8013 kPa, x2 = 0.7943 | 783
313.08 K, 8205 kPa, x2 = 0.7943 | 784.9
313.08 K, 8410 kPa, x2 = 0.7943 | 786.8
313.08 K, 8593 kPa, x2 = 0.7943 | 788.4
313.08 K, 8800 kPa, x2 = 0.7943 | 790.3
313.08 K, 8999 kPa, x2 = 0.7943 | 792.2
313.08 K, 9208 kPa, x2 = 0.7943 | 794
313.08 K, 9405 kPa, x2 = 0.7943 | 795.7
313.08 K, 9619 kPa, x2 = 0.7943 | 797.5
313.08 K, 9803 kPa, x2 = 0.7943 | 799
